The text below walks through data of US20200246317A1, “METHODS OF TREATING DIABETIC NEUROPATHY WITH A THIAZOLINE ANTI-HYPERALGESIC AGENT” (CERSCI THERAPEUTICS, INC., priority 2019, published 2020).

Structures can show the parent of a compound that is named as a salt.

Data set [1] is described as follows: Gravimetric Vapor Sorption (GVS). The data set is classed as physicochemical. The text has this:
The sample is hygroscopic.

The nature of the next data set: Excretion in rats. The data set is classed as in vivo, rat.

In the case of `CC1(C)SC(Nc2ccccc2O)=N[C@@H]1C(=O)O` [Compound 1, (R)-2-(2-hydroxyphenylamino)-5,5-dimethyl-4,5-dihydrothiazole-4-carboxylic acid mono-hydrochloride], in data set [1], the hygroscopicity result is recorded as “hygroscopic”. In addition, the “form excreted into urine and feces” value in the data set “Excretion in rats” is listed as “primarily as a sulfate conjugate”.
